The values that follow come from PMC8234218, “In Vitro and In Vivo Efficacies of the Linear and the Cyclic Version of an All-D-Enantiomeric Peptide Developed for the Treatment of Alzheimer’s Disease” (International Journal of Molecular Sciences, 2021).

Usually Kd stands for the free concentration of one partner at which half of the binding sites on the other are occupied at equilibrium, for simple one-to-one binding.

In data set [1] the target is T1, Aβ(1-42)-oligomers (Homo sapiens, UniProt P05067).
T1 construct: Synthetic Aβ(1-42) and (Gln^22, Asn^23)-Amyloid β-Protein (1-40) (D/I Aβ) with >95% purity were purchased; purchased Bachem (Bubendorf, Switzerland); host or cells: chemical synthesis
The data set is described as follows: QIAD assay, Aβ(1-42) oligomer elimination. It counts as biochemical. Particulars: 80 µM Aβ(1-42) preincubated 2 h, 20 µM D-peptide, 30 min coincubation, density gradient fractions 4-6, RP-HPLC UV 214 nm, N = 2-5. The protocol:
According to Brener et al., a QIAD assay was performed in order to evaluate the Aβ(1-42) or D/I Aβ oligomer elimination efficacies of RD2D3 and cRD2D3 [18]. In short, 80 µM lyophilized Aβ(1-42) or 40 µM D/I Aβ was preincubated for 2 h or 15 min, respectively, to enrich Aβ-oligomers. Afterwards, either 20 µM RD2D3 or cRD2D3 for Aβ(1-42) or 10 µM RD2D3 or cRD2D3 for D/I Aβ were added to the preincubated solution and coincubated for additional 30 min. Subsequently, the samples were loaded on the top of a density gradient (5–50% (w/v) iodixanol (OptiPrep, Sigma-Aldrich, Darmstadt, Germany)) followed by an ultracentrifugation step (3 h at 4 °C and 259000× g (Optima TL-100, Beckman Coulter, Brea, CA, USA)). Following the ultracentrifugation, 14 fractions (140 µL each) were harvested by upward displacement. Fraction 15 contains the dissolved pellet in 6 M guanidine hydrochloride solution. Top fractions 1–2 contained Aβ-monomers, fractions 4–6 contained the Aβ-oligomers, which are of special interest, and the bottom fractions 11–14 contained high molecular weight (co-)precipitates or aggregated Aβ. Aβ(1-42) or D/I Aβ concentrations of each fraction were determined via analytical RP-HPLC and UV absorbance detection at 214 nm.

For data set [2], the target named is T2, Aβ(1-42) (Homo sapiens, UniProt P05067).
T2 construct: Synthetic Aβ(1-42) and (Gln^22, Asn^23)-Amyloid β-Protein (1-40) (D/I Aβ) with >95% purity were purchased; purchased Bachem (Bubendorf, Switzerland); host or cells: chemical synthesis
The data set is described as follows: SPR, D-peptide immobilized, Aβ(1-42) monomers as analyte. It counts as binding. Particulars: D-peptide immobilized on series S CM-5 chip, Aβ(1-42) monomers analyte 0.0045-10 µM, 10 mM HEPES + 50 mM NaCl pH 7.4, 25 °C, steady-state Langmuir 1:1 fit (Fig. 1g), read-out: KD Aβ(1-42), D-peptide as ligand. On the procedure: The dissociation constant (KD) of RD2D3 and cRD2D3 binding to Aβ(1-42) and D/I Aβ was determined by SPR spectroscopy using a Biacore T200 instrument (Biacore, GE Healthcare, Uppsala, Sweden). Aβ(1-42) or D/I Aβ was used as the ligand, while RD2D3 and cRD2D3 were used as the analyte or vice versa.
By using the compounds (RD2D3 and cRD2D3) as ligands, they were immobilized on two separate channels on a series S CM-5 sensor chip (Cytiva, GE Healthcare, Uppsala, Sweden) by amine coupling. Both flow cells on each channel were activated with a mixture of 50 mM N-hydroxysuccinimide (NHS) and 16.1 mM N-ethyl-N’-(dimethylaminopropyl)carbodiimide (EDC) (XanTec, Düsseldorf, Germany) for 7 min. The peptides were diluted to 50 µg/mL in 10 mM maleic acid pH 6 (AppliChem, Darmstadt, Germany) and injected over flow cell two of each channel to a final signal between 600 and 900 RU. After the peptides were immobilized, the ligand and reference flow cells of each channel were quenched by injecting 1 M ethanolamine pH 8.5 (XanTec, Düsseldorf, Germany) for 7 min. […] Aβ(1-42) or D/I Aβ were diluted in the running buffer to the following concentrations: 10 µM, 3.3 µM, 1.1 µM, 0.37 µM, 0.12 µM, […], 0.014 µM and 0.0045 µM. All samples were injected over the flow cells for 180 s, followed by a dissociation step of 600 s with running buffer. […]
Background: SPR reads the build-up and loss of mass on a sensor chip optically.

The nature of data set [3]: Body weight in i.p. treatment study. Particulars: Tg-SwDI mice, mean ± SEM; for Body weight before treatment: 11 months old, before 28 d i.p. osmotic minipump 8 mg/kg daily; for Body weight after treatment: after 28 d i.p. osmotic minipump 8 mg/kg daily. It counts as in vivo. On the procedure:
Eleven months old Tg-SwDI were treated for 28 d i.p. by use of an osmotic minipump (Alzet osmotic pumps, Modell 1004, Charles River, Wilmington, MS, USA) with a daily dosage of 8 mg/kg peptide (RD2D3 (n = 14) or cRD2D3 (n = 12)) in PBS (pH 7.4) or vehicle (Placebo (n = 13), PBS, pH 7.4). The minipumps and the i.p. application route have been used to achieve continuous application of the study drug. After surgery, mice were monitored daily the following three days and twice each week until the end of the treatment. A loss of body weight and severe conspicuities were defined as exclusion criteria. No mouse was affected by these exclusion criteria. During the last one and a half weeks of treatment, different behavioral tests (nesting behavior, marble burying, open field test and MWM) were conducted with all mice.

Where a SMILES comes first, the peptide text is derived from it. [ ]: non-standard residue; d: D form.

T2 sequence (P05067 672-713): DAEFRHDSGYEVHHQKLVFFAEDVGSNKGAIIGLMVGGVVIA
T1 sequence (P05067 672-713): as above

As for `CC(C)C[C@H]1NC(=O)[C@@H](CCCNC(=N)N)NC(=O)[C@@H]([C@H](C)O)NC(=O)[C@@H](CCCNC(=N)N)NC(=O)[C@H]2CCCN2C(=O)[C@@H](CCCNC(=N)N)NC(=O)[C@@H](CCCNC(=N)N)NC(=O)[C@@H](CCCNC(=N)N)NC(=O)[C@@H](CCCNC(=N)N)NC(=O)[C@@H](CCCNC(=N)N)NC(=O)[C@@H](CCCNC(=N)N)NC(=O)[C@@H](CC(N)=O)NC(=O)[C@@H](Cc2c[nH]cn2)NC(=O)[C@@H]([C@H](C)O)NC(=O)[C@@H](Cc2c[nH]cn2)NC(=O)[C@@H](CC(C)C)NC(=O)[C@@H]([C@H](C)O)NC(=O)[C@H]2CCCN2C(=O)[C@@H](CCCNC(=N)N)NC(=O)[C@@H](CC(N)=O)NC(=O)[C@@H](CCCNC(=N)N)NC(=O)[C@@H](Cc2c[nH]cn2)NC(=O)[C@@H]([C@H](C)O)NC(=O)[C@@H](Cc2c[nH]cn2)NC1=O` [cRD2D3] (cyclo([dH][dN][dR][dR][dR][dR][dR][dR][dP][dR][dT][dR][dL][dH][dT][dH][dR][dN][dR][dP][dT][dL][dH][dT])), the “Elimination of toxic Aβ(1-42)-oligomers (QIAD)” value in data set [1] worked out at 80%. Moreover, in data set [2], the Kd is 5.63 ± 2.5 µM. Besides, in data set [3], the “Body weight before treatment” value is given as 35.1 ± 1.4 g and the “Body weight after treatment” value was 33.2 ± 1.0 g.

As to `CC(C)C[C@@H](NC(=O)[C@@H](CCCNC(=N)N)NC(=O)[C@H](NC(=O)[C@@H](CCCNC(=N)N)NC(=O)[C@H]1CCCN1C(=O)[C@@H](CCCNC(=N)N)NC(=O)[C@@H](CCCNC(=N)N)NC(=O)[C@@H](CCCNC(=N)N)NC(=O)[C@@H](CCCNC(=N)N)NC(=O)[C@@H](CCCNC(=N)N)NC(=O)[C@@H](CCCNC(=N)N)NC(=O)[C@@H](CC(N)=O)NC(=O)[C@@H](Cc1c[nH]cn1)NC(=O)[C@H](NC(=O)[C@@H](Cc1c[nH]cn1)NC(=O)[C@@H](CC(C)C)NC(=O)[C@H](NC(=O)[C@H]1CCCN1)[C@H](C)O)[C@H](C)O)[C@H](C)O)C(=O)N[C@H](Cc1c[nH]cn1)C(=O)N[C@@H](C(=O)N[C@H](Cc1c[nH]cn1)C(=O)N[C@H](CCCNC(=N)N)C(=O)N[C@H](CC(N)=O)C(=O)N[C@H](CCCNC(=N)N)C(N)=O)[C@H](C)O` [RD2D3] (H-[dP][dT][dL][dH][dT][dH][dN][dR][dR][dR][dR][dR][dR][dP][dR][dT][dR][dL][dH][dT][dH][dR][dN][dR]-NH2), the dissociation constant (Kd) in data set [2] amounted to 18.4 ± 6.5 µM. For the same molecule, in data set [3], the “Body weight before treatment” value stood at 33.2 ± 2.6 g and the “Body weight after treatment” value is 34.3 ± 0.6 g.
